According to patent US9193728B2, “Fused tetracyclic pyrido [4,3-B] indole and pyrido [3,4-B] indole derivatives and methods of use” (Medivation Technologies, Inc., priority 2010, dated 2015):

Biological target: T1, human recombinant histamine H2 receptor (Homo sapiens, UniProt P25021)
T1 construct: expressed in transfected cells; host or cells: CHO-K1
Assay: Histamine H2 radioligand binding ([125I]Aminopotentidine)
Conditions: compound at 1 μM; 0.1 nM [125I]Aminopotentidine; read-out: Histamine Binding (1 μM) H2, percentage inhibition
Protocol: To evaluate in radioligand binding assays the activity of compounds of the invention, human recombinant histamine H2 receptor expressed in Chinese hamster ovary (CHO) K1 cells (Ruat, M., Proc. Natl. Acad. Sci. USA. 87(5):1658, 1990) in a 50 mM Phosphate buffer, pH 7.4 was used. Compounds of the invention were incubated with 0.1 nM [^125I]Aminopotentidine for 120 min. at 25° C. Non-specific binding was estimated in the presence of 3 μM Tiotidine. Receptor proteins were filtered and washed, the filters were then counted to determine [^125I]Aminopotentidine specifically bound. Compounds were screened at 1 μM or lower, using 1% DMSO as vehicle. Biochemical assay results are presented as the percent inhibition of specific binding in Table 2.

T1 sequence (P25021 whole entry): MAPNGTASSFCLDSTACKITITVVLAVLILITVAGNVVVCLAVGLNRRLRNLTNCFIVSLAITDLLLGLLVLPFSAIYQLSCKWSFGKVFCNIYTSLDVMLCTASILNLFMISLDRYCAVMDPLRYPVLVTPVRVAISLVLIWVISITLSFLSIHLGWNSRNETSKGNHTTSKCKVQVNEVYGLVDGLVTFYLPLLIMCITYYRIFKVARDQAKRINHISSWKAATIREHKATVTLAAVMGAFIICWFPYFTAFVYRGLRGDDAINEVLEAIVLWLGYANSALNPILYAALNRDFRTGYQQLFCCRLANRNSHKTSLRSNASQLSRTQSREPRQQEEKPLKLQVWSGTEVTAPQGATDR

`Cc1cc2c3c(c1)c1c(n3CC(c3ccc(F)cc3)C2)CCN(C)C1` (stereo not shown) [Compound 3] was tested, and the inhibition at 1 µM was 75%.
